Peptide text beside a SMILES is read from it. * marks the point of attachment. Cbz = O=C(OCc1ccccc1)*; CH2F = FC*
How the values were obtained:
SF767 cells = experiment: Cell death in SF767 cells in response to VP16; format: cell-based, human; conditions: VP16 alone or with control siRNA
Excerpt: The levels of cell death in SF767 cells in response to VP16 treatment in the presence of either p53 or TSAP-6 specific siRNAs as well as in the presence of anti-Gal-3 antibody were further determined. […] This effect was inhibited in the presence of specific siRNAs for p53 (FIGS. 2E and H) or TSAP-6 as well as in the presence of anti-Gal-3 antibody. The inhibition mediated by TSAP6 siRNA was not complete, likely reflecting the incomplete TSAP6 inhibition by this siRNA (FIG. 2E).

[1] = system: Gal-3 secretion in SF767 cells; experiment: Western blot for secreted Gal-3 in SF767 glioma cells; format: cell-based, human; conditions: SF767, VP16 alone
Description: FIG. 2E. […] This effect is inhibited by p53 siRNA (lanes 5,6) but not control siRNA (lanes 3,4).
FIG. 23. […] This effect is inhibited by siRNAs for TSAP6 (lane 2), p53 (lane 3) and Fas (lane 4), but not control siRNA (lane 1).
Immunoblots were performed on cell lysates (lysed in 8 M urea, 4% SDS, in 10 mM Tris (pH 7.4)), from indicated cells. The conditioned media was precipitated by 15% TCA precipitation for 2 h at 4° C., washed twice with ice-cold acetone, and then resuspended in lysis buffer (8M urea, 4% SDS, 100 mM protease inhibitor cocktail (Roche, Germany)). Electrophoresis and blotting was performed using the Criterion system (BioRad; CA, USA) on. TCA precipitated proteins. Western blots were probed with antibodies for p53 (M7001-clone DO-7; DAKO; 1:500), p21 (MS-891-P1; Neomarkers, CA, USA; 1:250), Gal-3 (ab14364; Santa Cruz, Calif., USA; 1:500), HA (Roche; Germany, 1:500), caspase-3 (1:5000), α-TSP1 (MS-421-P1-Ab-4; NeoMarkers; CA, USA; 1:1000), and PARP (556494; BD Biosciences; CA, USA, 1:1000). Actin was used as a loading control (sc-1615, Santa Cruz Biotechnology; CA; 1:500). Blots were visualized by enhanced chemiluminescence (Pierce, IL, USA). For apoptosis analysis, cells were treated with either media containing secreted Gal-3 or with both secreted Gal-3 and 50 μm Z-VAD-FMK general caspase inhibitor (BD Biosciences; CA, USA). […]

[2] = system: Caspase-3 and PARP cleavage in LN229 cells; experiment: Western blot for caspase-3 and PARP cleavage after sGal-3 treatment; format: cell-based, human
Description: (§1) FIG. 4: Secreted Gal-3 induces apoptosis in tumor cells. FIG. 4A. Bright field pictures and quantification of LN229 glioma cells after 12 h treatment with either secreted Gal-3 alone or in combination with 50 μM Z-VAD general caspase inhibitor. Note inhibition of sGal-3-mediated cell death when cells are co-treated with Z-VAD. Results were quantified by crystal violet assay and experiments repeated three times in triplicate. Similar results were obtained with LN-Z308 cells (data not shown). FIG. 4B.
(§2) Immunoblots were performed on cell lysates (lysed in 8 M urea, 4% SDS, in 10 mM Tris (pH 7.4)), from indicated cells. The conditioned media was precipitated by 15% TCA precipitation for 2 h at 4° C., washed twice with ice-cold acetone, and then resuspended in lysis buffer (8M urea, 4% SDS, 100 mM protease inhibitor cocktail (Roche, Germany)). Electrophoresis and blotting was performed using the Criterion system (BioRad; CA, USA) on. TCA precipitated proteins. […]
(§3) LN229 and LN-Z308 glioma cells were treated with either extracellular Gal-3 alone, or in combination with the Z-VAD general caspase inhibitor and analyzed the cells for apoptotic features.

[3] = system: LN229 and LN-Z308 glioma cells; experiment: Apoptotic features after sGal-3 treatment with or without Z-VAD; format: cell-based, human
Description: as §1, §2, §3

[4] = system: four different human glioma cell lines; experiment: Recombinant Gal-3 added to culture medium, cell number; format: cell-based
Description: FIG. 6D. Purified recombinant human Gal-3 (Research Diagnostics Inc.) induces cytotoxicity in four glioma cell lines in a dose-response fashion (0, 5, 12.5, 25, 50, 100, 150 ng/ml) within 48 hrs.
A comparison of rGal3 with naturally secreted Gal3 evidences post-translational modifications in the naturally secreted one (data not shown).

[5] = system: human dermal microvascular endothelial cells (HDMEC); experiment: Crystal violet assay, CM of sGal-3 transfected 293 cells, normal cells; format: cell-based
Description: (§4) 293 cells were transfected using GenePORTER reagent (Gene Therapy Systems; CA, USA) with the pUMVC7-sGal-3 plasmid and switched over to serum free media 16 h later. The CM was collected after 48 h, floating cells removed through centrifugation at 1000 g, and filtrated through a 0.8 μm filter (Corning; NY, USA). Cells were plated at 5,000 cells per well in 24-well plates and treated with serial dilutions of CM from either pCMV-LacZ or pUMVC7-sGal-3 transfected 293 cells. Relative cell number compared to serum free media control was quantified in triplicate 24 h and 48 h post treatment using either an MTT kit (Roche; IN, USA) or by crystal violet assay by acquiring absorbance at 575 nm using a spectrophotometer.
(§5) To examine whether the cytotoxic effect of Gal-3 was limited to glioma or whether it represents a more general anti-cancer property, two breast cancer (MD468 and MCF7), two lung cancer (A549 and H1289) and two prostate cancer (LnCaP and PC3) cell lines were tested using the same assay and found all of them to be sensitive to sGal-3 presence in the medium (FIG. 6B).

[6] = system: human foreskin fibroblasts (HFF); experiment: as above; format: cell-based
Description: as §4, §5

[7] = system: tumors of sGal-3 expressing tet-inducible clones #12 and #21; experiment: In vivo mouse tumorigenicity assay (subcutaneous xenograft); parameters: species or system athymic nude mice
Description: FIG. 7C. sGal-3 inhibits tumor growth. Six-week old female athymic nude mice (NCI) were injected subcutaneously with 5×10^6 cells of clone #12 and divided into two groups (n=8). Similar results were obtained with clone #21. One group was left untreated while the second group was given 2 mg/ml Dox in drinking water containing 5% sucrose to induce expression of sGal-3 one week after tumor cell implantation until termination of the experiment. The length (a) and width (b) of the tumors were measured weekly and tumor volume was calculated in mm^3=(a×b^2)/2.
Six-week old female athymic nude mice (NCI) (n=8/group) were injected subcutaneously with 5×10^6 cells of the indicated cell lines. 2 mg/ml Dox was delivered orally in drinking water containing 5% sucrose to induce expression and secretion of Gal-3 one week post injection of tumor cells until termination of the experiment. The length (a) and width (b) of the tumors were measured weekly and tumor volume was calculated in mm^3=(a×b^2)/2.
To test directly the effect of sGal-3 on tumor growth in vivo, a nu/nu mouse xenograft model system was used. Cells (5×10^6) from the sGal-3 expressing tet-inducible clones #12 and #21 were injected subcutaneously in the mice and sGal-3 expression was induced one week post tumor cell implantation in half of the injected mice by feeding dox in the drinking water for 12 weeks (9 mice/group). Only 4 of the 18 tumors (clone #12) in the sGal-3 expressing group developed while 14/18 tumors grew in the control group. […] Immunohistochemistry for Gal-3 expression in excised tumors from mice treated with doxycycline confirmed that Gal-3 was expressed (FIG. 7D).

SF767 glioma cells = experiment: Crystal violet assay, CM of sGal-3 transfected 293 cells; format: cell-based, human; conditions: CM of transfected 293 cells as source of sGal-3, after 48 h
Description: as §4
(§6) After cleavage of the secretion signal, the sGal-3 amino acid sequence is identical to the endogenous secretion product. It is nevertheless possible that sGal3 will have different post-translational modifications that may vary between the exosome-mediated secretory pathway and the classical secretion pathway. To verify the functionality of the construct, the construct was transfected in 293-CLH cells where it mediated a robust increase in the expression and secretion of Gal-3 without intracellular accumulation (FIG. 6A). Using the CM of transfected 293 cells as a source of sGal-3, its effect on the growth of SF767, LN-Z308 and LN229 glioma cells was determined using a crystal violet assay. […] Cells incubated with serum free medium or CM from 293 cells transfected with control pCMV-lacZ plasmid were unaffected (FIG. 6B).

LN229 glioma cells = experiment: as above; format: cell-based, human; conditions: CM of transfected 293 cells as source of sGal-3, after 48 h
Description: as §4, §6

LN-Z308 glioma cells = experiment: as above; format: cell-based, human; conditions: CM of transfected 293 cells as source of sGal-3, after 48 h
Description: as §4, §6

[8] = system: LN229-L16-derived dox-inducible sGal-3 clones; experiment: Dox-induced sGal-3 expression in cell culture; format: cell-based, human; conditions: within 3-5 days in cell culture
Description: Five μg of the plasmid DNA and 5 μl of GenePORTER reagent (Gene Therapy Systems; San Diego, Calif.) were used for each transfection. One μg of pcDNA3.1 containing the geneticin (G418)-resistance cassette was co-transfected at a […], when generating stable clones. Tetracycline-inducible sGal-3 transfected clones were generated in L16 glioma cells (Tet-on clone derived from LN229) by selecting for G418 resistance (1,200 μg/ml). The individual clones were assessed for expression of sGal-3 after 48 h dox induction by western blot analysis. For TSAP6 siRNA, HEK293 cells were transfected with either pcDNA3.1 vectors containing TSAP6 and Galectin-3 alone or in combination with […] or TSAP6 (pHYDE) siRNA (Santa Cruz, Calif., USA) using GenePORTER reagent (Gene Therapy Systems; CA, USA). Cells were allowed to recover overnight in 10% FBS containing DMEM before switching them to serum free media. Cells and CM were collected after 24 hours in serum free media.
To test this concept, dox-inducible sGal-3 clones were generated with variable expression levels in LN229-L16 cells (rtTA expressing) (see materials and methods) (FIG. 7A).

[9] = system: A549 lung cancer cell line; experiment: Crystal violet assay, CM of sGal-3 transfected 293 cells; format: cell-based
Description: as §4, §5

[10] = system: MD468 breast cancer cell line; experiment: as above; format: cell-based
Description: as §4, §5

[11] = system: H1289 lung cancer cell line; experiment: as above; format: cell-based
Description: as §4, §5

[12] = system: LnCaP prostate cancer cell line; experiment: as above; format: cell-based
Description: as §4, §5

[13] = system: MCF7 breast cancer cell line; experiment: as above; format: cell-based
Description: as §4, §5

[14] = system: PC3 prostate cancer cell line; experiment: as above; format: cell-based
Description: as §4, §5

Question: `COc1cc([C@@H]2c3cc4c(cc3[C@@H](O[C@@H]3O[C@@H]5CO[C@@H](C)O[C@H]5[C@H](O)[C@H]3O)[C@H]3COC(=O)[C@H]23)OCO4)cc(OC)c1O` [Etoposide, etoposide] was tested. Which “levels of cell death” value (SF767 cells) did it give?
Answer: The value was “marked levels of apoptosis”.

Question: And the “secretion of Gal-3 in the media” value [1]?
Answer: The value was “enhanced secretion of Gal-3”.

Question: Which “effect on sGal-3-induced Caspase-3 and PARP cleavage” value ([2]; co-treatment with 50 μM Z-VAD) does the source give for `COC(=O)C[C@H](NC(=O)[C@H](C)NC(=O)[C@@H](NC(=O)OCc1ccccc1)C(C)C)C(=O)CF` [Z-VAD, Z-VAD-FMK, reference compound] (Cbz-Val-Ala-Asp(OMe)-CH2F) here?
Answer: Its value is “neutralized”.

Question: What about the “effect on sGal-3-mediated cell death” value ([3]; co-treatment with 50 μM Z-VAD) of the same compound?
Answer: Its value is “inhibited”.

Question: Which “potency compared with naturally secreted Gal-3” value [4] does the source give for “rGal-3: Purified recombinant human Gal-3 (Research Diagnostics Inc.)” here?
Answer: The value was “less than that found naturally secreted by human cells”.

Question: And the cell number ([4]; increasing amounts (0, 5, 12.5, 25, 50, 100, 150 ng/ml) over 48 h)?
Answer: The cell number was “dose-dependent decrease in cell number”.

Question: What does the source list for “sGal-3: constitutively secreted soluble Gal-3; Gal-3 cDNA fused to classical secretion signal peptide from the plasminogen activator gene, produced in 293 cells”?
Answer: viability in response to secreted Gal-3 in the media [5]: did not show decreased viability; viability in response to secreted Gal-3 in the media [6]: did not show decreased viability; average tumor volume at termination versus controls ([7]; clone #12, p<0.02): over six-fold smaller; tumors developed ([7]; clone #12, sGal-3 induced by dox in drinking water for 12 weeks, control 14/18): 4 of the 18; tumor size at termination, fold smaller than control group ([7]; clone #21, on average): 4 fold; tumors grew ([7]; clone #21, sGal-3 expression, control 16/18): 6 of 18; decrease in cell number (SF767 glioma cells): greater than 75%; decrease in cell number (LN229 glioma cells): greater than 75%; decrease in cell number (LN-Z308 glioma cells): greater than 75%; cell death upon induction of sGal-3 [8]: cell death in all three clones; Caspase-3 and PARP cleavage ([2]; within 12 h of sGal-3 treatment): Caspase-3 and PARP cleavage; apoptotic features ([3]; sGal-3 alone, as early as 12 h post treatment): membrane blebbing, and cell death; sensitivity to sGal-3 presence in the medium [9]: sensitive; sensitivity to sGal-3 presence in the medium [10]: sensitive; sensitivity to sGal-3 presence in the medium [11]: sensitive; sensitivity to sGal-3 presence in the medium [12]: sensitive; sensitivity to sGal-3 presence in the medium [13]: sensitive; sensitivity to sGal-3 presence in the medium [14]: sensitive
